Experimental findings from patent publication EP1680415B1, “PYRROLIDINYL UREA DERIVATIVES AS ANGIOGENESIS INHIBITORS” (ABBOTT LABORATORIES, priority 2003, dated 2005) are described below.

One assay has as its system HMVEC. In words: human microvascular endothelial (HMVEC) migration assay. The conditions noted are these: Homo sapiens; Inhibition of HMVEC migration; 0.01 nM; activators 15 ng/mL bFGF/VEGF; 4 hours at 37 °C; compared to a positive control. It is filed as cell-based. Summed up:
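Dermal (single-donor) and neonatal microvascular endothelial cells, serum-starved overnight in DME/0.01% BSA, attached 2 h at 37 °C to gelatin-coated 5 µm membranes in a modified Boyden chamber. Test substances with 15 ng/mL bFGF/VEGF added; migration over 4 h at 37 °C. Stained migrated cells counted per high-power field, background subtracted, or given as % inhibition versus positive control.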
With `Cc1ccc(C(=O)N2CC[C@@H](NC(=O)N3CC(C)OC(C)C3)C2)cn1` (stereo partly drawn) [Example 88, 2,6-dimethyl-N-{(3R)-1-[(6-methylpyridin-3-yl)carbonyl]pyrrolidin-3-yl}morpholine-4-carboxamide], the inhibition (commonly the percentage by which the read-out fell short of the control) at 10 pM stood at 81%. For `Cc1ccc(C(=O)N2CC[C@@H](NC(=O)N3CCN(c4ccccn4)CC3)C2)cn1` [Example 90, N-{(3R)-1-[(6-methylpyridin-3-yl)carbonyl]pyrrolidin-3-yl}-4-pyridin-2-ylpiperazine-1-carboxamide], the inhibition at 10 pM came out at 52%. `Cc1ccc(C(=O)N2CC[C@@H](NC(=O)N3CCN(c4ccccc4F)CC3)C2)cn1` [Example 91, 4-(2-fluorophenyl)-N-{(3R)-1-[(6-methylpyridin-3-yl)carbonyl]pyrrolidin-3-yl}piperazine-1-carboxamide] yielded an inhibition at 10 pM of 57%. Compound `Cc1ccc(C(=O)N2CC[C@@H](NC(=O)N3CCN(c4ccc(F)cc4)CC3)C2)cn1` [Example 92, 4-(4-fluorophenyl)-N-{(3R)-1-[(6-methylpyidin-3-yl)carbonyl]pyrrolidin-3-yl}piperazine-1-carboxamide] yielded an inhibition at 10 pM of 67%. The same measure, in the same setting: the same measure for `CCOC(=O)CN1CCN(C(=O)N[C@@H]2CCN(C(=O)c3ccc(C)nc3)C2)CC1` [Example 95, ethyl {4-[({(3R)-1-[(6-methylpyridin-3-yl)carbonyl]pyrrolidin-3-yl}amino)carbonyl]piperazin-1-yl} acetate]: 62%; for `COCC1CCCN(C(=O)N[C@@H]2CCN(C(=O)c3ccc(C)nc3)C2)C1` (stereo partly drawn) [Example 97, 3-(methoxymethyl)-N-{(3R)-1-[(6-methylpyridin-3-yl)carbonyl]pyrrolidin-3-yl}piperidine-1-carboxamide]: 54%.

The same assay, now with this note: Homo sapiens; Inhibition of HMVEC migration; 0.1 nM; activators 15 ng/mL bFGF/VEGF; 4 hours at 37 °C; compared to a positive control.
Compound `Cc1ccc(C(=O)N2CC[C@@H](NC(=O)N3CCC4(CC3)OCCO4)C2)cn1` [Example 87, N-{(3R)-1-[(6-methylpyridin-3-yl)carbonyl]pyrrolidin-3-yl}-1,4-dioxa-8-azaspiro[4.5]decane-8-carboxamide] yielded an inhibition at 0.0001 µM of 55%. Still for that read-out and setting: the same measure for `Cc1ccc(C(=O)N2CC[C@@H](NC(=O)N3CCN(c4ccccc4)CC3)C2)cn1` [Example 89, N-{(3R)-1-[(6-methylpyridin-3-yl)carbonyl]pyrrolidin-3-yl}-4-phenylpiperazine-1-carboxamide]: 62%; for `COc1ccccc1N1CCN(C(=O)N[C@@H]2CCN(C(=O)c3ccc(C)nc3)C2)CC1` [Example 93, 4-(2-methoxyphenyl)-N-{(3R)-1-[(6-methylpyridin-3-yl)carbonyl]pyrrolidin-3-yl}piperazine-1-carboxamide]: 72%. In turn, `Cc1ccc(C(=O)N2CC[C@@H](NC(=O)N3CCN(c4ccc([N+](=O)[O-])cc4)CC3)C2)cn1` [Example 96, N-{(3R)-1-[(6-methylpyridin-3-yl)carbonyl]pyrrolidin-3-yl}-4-(4-nitrophenyl)piperazine-1-carboxamide] showed an inhibition at 0.0001 µM of 75%.

Staying with this assay, now noted: Inhibition of HMVEC migration; 0.1 nM; activators 15 ng/mL bFGF/VEGF; 4 hours at 37 °C; compared to a positive control.
For the compound “N-{(3R)-1-[(6-methyl-3-pyridinyl)carbonyl]-3-pyrrolidinyl}-N'-[2-(2-thienyl)ethyl]urea [Example 28]”, the “% Inhibition @ 0.1 nM” value was 86%.

The same assay, now with this note: Inhibition of HMVEC migration; 1 nM; activators 15 ng/mL bFGF/VEGF; 4 hours at 37 °C; compared to a positive control.
In the case of “N-{(3R)-1-[(2-chloro-6-methylpyridin-3-yl)carbonyl]pyrrolidin-3-yl}-1,3,3-trimethyl-6-azabicyclo[3.2.1]octane-6-carboxamide [Example 36]”, the “% Inhibition @ 1 nM” value is on record as 64%.
